Assays:
Type in all cases: in vivo, human
[1] = system: sweetness of a reference water solution containing 4% sucrose (sucrose base); assay: Sensory panel of 25 trained panelists, sweet taste modifying effect in 4% sucrose, with nose-clip; conditions: for enhancement of the sweetness of the sucrose base (in words): 5 ppm; for sweetness, With nose-clip (NC) / Significant level Student test (NC): 5 ppm in 4% sucrose; for sweetness, With nose-clip (NC): scale of −5 (strong masking) to 5 (strong enhancing), 0 = sucrose base; for Significant level Student test (NC): sweetness, with nose-clip
From the text: (§1) The taste of a sample of a composition according to several aspects presented herein, with regard to sweetness and/or sweetness enhancing properties, may be assessed in vivo by using a panel of trained sensory evaluators experienced in the sweet taste estimation procedure, e.g. in the sensory assay described e.g. in Examples 1 and 2, using a test base comprising a 4% sucrose solution, or similar composition.
(§2) In sensory studies, panelists are asked to take a sample of the liquid to be assessed (test substance, e.g. the test base comprising a composition according to several aspects presented herein) into the mouth and after some time allowed for taste perception, to spit the sample out completely. Subsequently, the panelists are asked to rinse their mouth well with water or black tea to reduce any potential carry over effects. The tasting of a sample can be repeated if required.
Sensory Evaluations: A sensory panel consisted of 25 trained panelists. The panelists were asked to evaluate the sweet taste modifying effect of the isolated individual polymethoxyflavones in a reference water solution containing 4% sucrose. The panelists evaluated samples containing TMS, HMQ, NOB, HMF, TAN and SIN (all at 5 ppm), and a mixture comprising a mixture of polymethoxyflavones (PMF mixture at 10 ppm), for taste properties (sweet) on a scale of −5 to 5 (−5 denoted strong masking effect and 5 denoted strong enhancing effect, 0 being the intensity of a reference water solution containing 4% sucrose—referred to herein as the sucrose base).

[2] = system: sweetness of a reference water solution containing 4% sucrose (sucrose base); assay: Additional sensory evaluation, 8 trained panelists, dose series in 4% sucrose
From the text: as §1, §2
Additional Sensory Evaluations: A sensory panel consisted of 8 trained panelists. The panelists were asked to evaluate the sweet taste modifying effect of 0.001, 0.1, 1, 2, and 20 ppm of either TMS, HMQ, or NOB in a reference water solution containing 4% sucrose, on a scale of −5 to 5 (−5 denoted strong masking effect and 5 denoted strong enhancing effect, 0 being the intensity of a reference water solution containing 4% sucrose—referred to herein as the sucrose base).

[3] = system: sweetness of a reference water solution containing 4% sucrose; assay: Additional sensory evaluation, 8 trained panelists, TMS, HMQ and TMS:HMQ mixtures in different ratio; conditions: for significance of sweetness enhancement: Low sugar beverage (4% sucrose)
From the text: as §1, §2
A sensory panel consisted of 8 trained panelists. The panelists were asked to evaluate the sweet taste modifying effect of 0.5, 1, 2 ppm of either TMS or HMQ as well as 1, 1.5, 2 ppm of TMS and HMQ mixture in different ratio in a reference water solution containing 4% sucrose.

[4] = system: sweetness of reduce sugar fruit tea beverage; assay: Additional sensory evaluation, 8 trained panelists, fruit tea beverage; design: significance of sweetness enhancement: key to the marks not given beside the values
From the text: as §1, §2
Additional Sensory Evaluations: A sensory panel consisted of 8 trained panelists. The panelists were asked to evaluate the sweet taste modifying effect of 0.001, 2 and 20 ppm of PMF mixture and 0.2 ppm of TMS, 0.1 ppm of HMQ, and 0.3 ppm of the mixture of TMS and HMQ at ratio of 2 to 1 in a reference low sugar fruit tea beverage solution as well as standard sugar fruit tea beverage solution.

[5] = at 0.1 and 0.001 ppm in 4% sucrose
[6] = at doses less than or equal to 2 ppm in 4% sucrose

For `COc1ccc(-c2oc3c(OC)c(OC)c(OC)c(OC)c3c(=O)c2OC)cc1OC` [HMF, 3,5,6,7,8,3′,4′-heptamethoxyflavone], the “enhancement of the sweetness of the sucrose base (in words)” value (from here on “enhancement of the sweetness … (in words)”) [1] was “Neither HMF, nor SIN had any observable enhancement of sweetness” and the “sweetness, With nose-clip (NC)” value [1] was 0.21.

`COc1ccc(-c2oc3cc(OC)c(OC)c(OC)c3c(=O)c2OC)cc1OC` [HMQ, 3,5,6,7,3′,4′-hexamethoxyflavone] was tested, and the “enhancement of the sweetness … (in words)” value [1] was “significantly enhance the sweetness of the sucrose base”, the “Significant level Student test (NC)” value [1] was “++” and the “sweetness, With nose-clip (NC)” value [1] was 0.57. For the same molecule, the “significance of sweetness enhancement” value ([2]; 0.001 ppm in 4% sucrose) was “+++”, the “significance of sweetness enhancement” value ([2]; 0.1 ppm in 4% sucrose) was “++” and the “significance of sweetness enhancement” value ([2]; 2 ppm in 4% sucrose) was “++”. For the same molecule, the “sweetness enhancement effect (in words)” value [2, 5] was “significant sweetness enhancement effect”, the “sweetness enhancement effect (in words)” value [2, 6] was “better sweetness enhancement effect” and the “significance of sweetness enhancement” value ([3]; 0.5 ppm) was “++”. For the same molecule, the “sweetness enhancement effect (in words)” value ([3]; 1 ppm) was “did not show any observable sweetness enhancement effect”, the “significance of sweetness enhancement” value ([3]; 2 ppm) was “++” and the “sweetness enhancement effect (in words)” value ([4]; 0.1 ppm in reduce sugar fruit tea beverage) was “did not show the sweetness enhancement effect”.

For `COc1ccc(-c2cc(=O)c3c(OC)c(OC)c(OC)c(OC)c3o2)cc1OC` [NOB, 5,6,7,8,3′,4′-hexamethoxyflavone, reference compound], the “enhancement of the sweetness … (in words)” value [1] was “significantly enhance the sweetness of the sucrose base”, the “Significant level Student test (NC)” value [1] was “++” and the “sweetness, With nose-clip (NC)” value [1] was 0.37. The “significance of sweetness enhancement” value ([2]; 0.001 ppm in 4% sucrose) was “++”, the “sweetness enhancing properties (in words)” value ([2]; 0.001 to 20 ppm in 4% sucrose, in contrast to TMS and HMQ) was “less significant” and the “significance of sweetness enhancement” value ([2]; 1 ppm in 4% sucrose) was “++”. For the same molecule, the “significance of sweetness enhancement” value ([2]; 20 ppm in 4% sucrose) was “++”.

For `COc1ccc(-c2cc(=O)c3c(OC)c(OC)c(OC)cc3o2)cc1OC` [SIN, 5,6,7,3′,4′-pentamethoxyflavone], the “enhancement of the sweetness … (in words)” value [1] was “Neither HMF, nor SIN had any observable enhancement of sweetness” and the “sweetness, With nose-clip (NC)” value [1] was 0.17.

In the case of `COc1ccc(-c2cc(=O)c3c(OC)c(OC)c(OC)c(OC)c3o2)cc1` [TAN, 5,6,7,8,4′-pentamethoxyflavone], the “enhancement of the sweetness … (in words)” value [1] is reported as “negative effect of sweetness”, the “Significant level Student test (NC)” value [1] is reported as “−” and the “sweetness, With nose-clip (NC)” value [1] is reported as −0.30.

`COc1ccc(-c2cc(=O)c3c(OC)c(OC)c(OC)cc3o2)cc1` [TMS, 5,6,7,4′-tetramethoxyflavone] was tested, and the “enhancement of the sweetness … (in words)” value [1] was “significantly enhance the sweetness of the sucrose base”, the “Significant level Student test (NC)” value [1] was “++” and the “sweetness, With nose-clip (NC)” value [1] was 0.55. For the same molecule, the “significance of sweetness enhancement” value ([2]; 0.001 ppm in 4% sucrose) was “++”, the “significance of sweetness enhancement” value ([2]; 0.1 ppm in 4% sucrose) was “++” and the “significance of sweetness enhancement” value ([2]; 1 ppm in 4% sucrose) was “++”. For the same molecule, the “significance of sweetness enhancement” value ([2]; 2 ppm in 4% sucrose) was “+”, the “sweetness enhancement effect (in words)” value [2, 5] was “significant sweetness enhancement effect” and the “sweetness enhancement effect (in words)” value [2, 6] was “better sweetness enhancement effect”. For the same molecule, the “significance of sweetness enhancement” value ([3]; 1 ppm) was “++”, the “significance of sweetness enhancement” value ([3]; 2 ppm) was “+” and the “significance of sweetness enhancement” value ([4]; +0.2 ppm in reduce sugar fruit tea beverage) was “++”.

— patent publication US20210161188A1, “POLYMETHOXYFLAVONES AS SWEETNESS ENHANCERS” (Firmenich SA, priority 2018, published 2021)
